According to patent US8252752B2 (priority 2000, dated 2012):
“Also recorded” adds a separate entry of the source.

Columns and labels:
MPTP-lesioned mice = format: in vivo, C57BL/6 mice
Protocol: Experimental mice were lesioned with MPTP (i.e., 40 mg/kg, ip twice, 1 month).
METHODS: Rota-Rod performance measures the length of time each animal manages to maintain its balance on the rotating lucite rod. Prior to MPTP-esioning animals, the performance was conditioned in three training sessions. The general training and testing procedure was as follows: namely,
Animals were placed on a stationary rod for 30 sec to accustom the behavior and establish familiarity with the environment. During this time if an animal fell, it was placed back on the rod; Next, animals were conditioned (or tested) at a constant speed of 5 rpm for 90 sec.;
Any animal that failed a first test was re-tested two more times; Any animal that failed a third test at 5 rpm was removed from the experiment; Thirty-minutes (30 min) after the last 5 rpm trial, each animal was placed back on the rod the speed was increased to 10 rpm; The length of time that each animal was able to maintain balance on the rod was measured at the constant speed of 10 rpm, i.e., data collection.

[1] = tested on: Tyrosine hydroxylase (TH); conditions: 20 mg/kg for two months vs NaCl
human DAT = human DAT (Homo sapiens, UniProt Q01959)
Sequence of human DAT (Q01959 whole entry): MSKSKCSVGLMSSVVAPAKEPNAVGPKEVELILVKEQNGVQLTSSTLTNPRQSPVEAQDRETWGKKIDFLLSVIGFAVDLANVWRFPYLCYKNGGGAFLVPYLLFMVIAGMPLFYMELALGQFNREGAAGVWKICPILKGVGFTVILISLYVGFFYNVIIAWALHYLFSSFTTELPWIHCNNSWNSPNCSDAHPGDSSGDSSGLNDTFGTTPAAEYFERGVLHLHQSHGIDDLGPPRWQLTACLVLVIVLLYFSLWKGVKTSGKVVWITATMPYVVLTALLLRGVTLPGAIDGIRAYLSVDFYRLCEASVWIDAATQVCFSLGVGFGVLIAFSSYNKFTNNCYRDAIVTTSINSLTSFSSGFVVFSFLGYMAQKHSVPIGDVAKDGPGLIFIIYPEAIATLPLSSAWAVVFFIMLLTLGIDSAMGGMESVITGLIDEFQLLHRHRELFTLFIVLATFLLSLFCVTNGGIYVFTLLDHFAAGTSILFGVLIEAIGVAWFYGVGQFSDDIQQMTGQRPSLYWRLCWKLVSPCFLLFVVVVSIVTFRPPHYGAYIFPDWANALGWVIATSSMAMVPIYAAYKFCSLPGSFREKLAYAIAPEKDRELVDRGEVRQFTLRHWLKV
Protocol: To obtain differing levels of DAT expression, cells were transiently transfected) with plasmids containing a DAT cDNA insert (hDAT), or alternatively, control irrelevant cDNA insert (Negative Control, NC). After 48-72 hrs. culture, dopamine transport was measured in the transiently transfected hDAT-cells by incubation for 5 hrs. in the presence of ^3H-labeled dopamine (Positive Control, PC).

6-OHDA-lesioned rats = tested on: 6-OHDA-lesioned rats
From the text: The nigral dopamine depletion is induced by using unilateral injections of 6-OHDA directly into the nigrostriatal system (AP: −4.4 mm, ML: 1.1 mm, DV: 7.5 mm, AP: −4.0 mm, ML: 0.8 mm, DV: 7.8 mm).
METHODS for STUDY #2: The Rota-Count 8 unit is an eight channel rotational meter. The system utilizes a digital rotary encoder and each encoder is mounted in a small bowl with a cable attachment; thereby, rotations of rats are automatically recorded. 6-OHDA in 0.9% NaCl at a concentration of 0.2% (w/v)-8 μl injected into the nigrostriatum. To control for injection failures in the injections, only 6-OHDA-lesioned rats that rotated more than 5 cycles/min at 7 days post-injection were selected for experimental use.

Nurr1 deficient mice = tested on: Nurr1 deficient mice
Protocol: Rota rod performance measurements were made on a weekly basis during an 8 week treatment period.
MATERIALS AND METHODS: RotaRod performance measurements (time that balance was maintained on the rod) were performed (as in Study #1), each week during 8 weeks of treatment.

Molecule	reduction of Rota-Rod mean time (MPTP-lesioned mice; after lesioning, 40 mg/kg ip twice)	Rota-Rod performance times relative to NaCl-treated controls (MPTP-lesioned mice; mouse, in vivo)	onset of significant improvement in Rota-rod performance times (MPTP-lesioned mice; mouse, in vivo)	locomotor activity after two months of treatment (MPTP-lesioned mice; mouse, in vivo, ip, 20 mg/kg)	amount of TH per neuron [1]	increase in number of neurons staining positively for TH ([1]; not statistically significant, n=6)	competition of 3H-dopamine uptake (human DAT; hDAT-transfected cells, 5 hrs. incubation)	transportability at DAT (human DAT; summary of EXAMPLE 12)	apomorphine-induced rotation (6-OHDA-lesioned rats; 20 mg/kg, 4 weeks, p<0.05)	agonist effects (rotation triggered by the compound itself) (6-OHDA-lesioned rats; 80 mg/kg or 200 mg/kg)	stability of Rota Rod performance during treatment (Nurr1 deficient mice; 20 mg/kg twice daily, 8 weeks)	improvement of Rota Rod performance relative to saline treated controls (Nurr1 deficient mice; 20 mg/kg twice daily, within two weeks of treatment)	Rota-Rod time compared with pretreatment performance times (Nurr1 deficient mice; 20 mg/kg, p<0.05)	time to return of Rota-Rod performance to pre-treatment values after cessation of treatment (Nurr1 deficient mice; after 8 weeks of treatment) [weeks]	Rota-Rod performance after cessation of treatment (washout) (Nurr1 deficient mice; after 8 weeks of treatment, p<0.05)
CN1CC=C(c2ccccc2)CC1 [MPTP, 1,2,3,6-methyl-phenyl-tetrahydropyridine, reference compound]	over 65%														
Dopamine gluconamide [Compound #1]		8-9 fold	about the third week of treatment; also recorded: about the second week	recovered locomotor activity	qualitatively much higher	20-30%	Competition of ^3H-dopamine uptake was observed	transportable at DAT	significantly decreased apomorphine-induced rotation	did not trigger visible effects	remained stable during the course of the 8-week treatment study	about 2 fold	significant increase of Rota-Rod time within two weeks of treatment	≤ 2	degraded significantly within one week
